Patent US9873724B2, “Pro-angiogenic peptides and peptide conjugates” (Yissum Research Development Company of the Hebrew …, priority 2013, dated 2018)
Where “and” joins values, the source holds several entries; their conditions need not be identical. Equal entries are not always repeated. Square brackets hold non-standard residues; d marks the D form. * marks the point of attachment. Myristoyl = CCCCCCCCCCCCCC(=O)*; Nle = CCCC[C@H](N)C(=O)O

Experiments:
mouse aortic rings = experiment: Aortic ring assay ex-vivo (capillary sprouting from mouse aortic rings in collagen; repeated with VEGF); assay type: cell-based; parameters: Capillary length 10 μM (10 μM) / Capillary length 20 μM / Capillary length 10 μM: unit not given here
Experimental: Thoracic aortas were dissected from 7- to 8-week-old male SABRA mice. The aortas were immediately transferred to Petri dishes containing BIO-MPM-1. The adventitia and small vessels around the aorta were carefully removed under a dissecting microscope, and transverse cuts of 0.75 mm were made. The resulting aortic rings were extensively rinsed and incubated overnight in BIO-MPM-1 containing penicillin-streptomycin. Subsequently, the rings were embedded in 50 μl collagen mix (7 parts collagen, 1 part 10× Eagle minimal essential medium, MEM, and 2 parts 0.15 M sodium bicarbonate) in 96-well plates (Nunc, Rochester, N.Y.). Solidification of the collagen solution was achieved by raising the pH to neutral and the temperature to 37° C. 150 μl BIO-MPM-1 containing penicillin-streptomycin and the tested factors or peptides) was added to the embedded rings, and the plates were incubated at 37° C. in a humidified 10% CO2 atmosphere. Medium containing factors and/or peptides was refreshed at days 4 and 8. After two weeks, the rings were fixed with 4% formaldehyde for 24 hours, followed by staining with crystal violet (0.02%) dissolved in ethanol and extensive washing to remove excessive stain. The effect of factors and peptides was examined in 4 wells (4 rings of mouse aortic rings) per assay. Micrographs of representative rings were taken using a digital camera (Nikon, Tokyo, Japan). Morphometric analysis of sprouting was performed manually using Image-Pro 4.5 software (Media Cybernetics, Silver Spring, Md.) according to Nissanov et al. (Lab Invest. 1995; 73:734-739). Nonstained rings were subjected to paraffin sections and hematoxylin and eosin (H&E) staining.
FIGS. 1A-1C represents aortic ring capillary length and FIGS. 2A-2C aortic ring capillary width. In the table: K-Flu is a Lysine residue coupled with a fluorescein moiety, 4BrPhe is 4-bromo-Phenylalanine, Dod is Dodecanoyl, Dec designates Decanoyl, Oct is Octanoyl, and Hex is Hexanoyl.
The aortic ring assay was repeated in the presence of 10 μM concentration of peptides AB-033 (SEQ ID NO: 13) and AB-034 (SEQ ID NO: 14) together with the pro-angiogenetic protein VEGF.

[1] = test system: blood vessels of mice (Evans-Blue leakage); experiment: Inhibition of blood-vessel leakiness (Evans-Blue leakage in mice); assay type: in vivo, mouse
Experimental: The peptide of SEQ ID NO: 12 (Myr-Gly-Nle-Arg-Pro-Tyr-NH2), or vehicle (10% PEG-400, 90% DDW), were injected i.p. to mice, in an amount of 20 or 40 mg/Kg. 5 min, 10 min, 1 hr or 4 hrs later, 0.2 ml per 25 g mouse (40 mg/Kg) of 5 mg/ml Evans-Blue solution in double distilled water (DDW) was injected i.p. The experiment was terminated after 30 min and skull was opened to view the brain surface (“Neurosurgery”) and assess the amount of Evans-Blue leaking from blood vessels.
Principle of peripheral vessels staining: Evans-Blue; it is a poly-anionic compound having a M.W. of 960 Dalton, that binds tightly to albumin and being used to track vessel-permeability. In case of blood-vessel leakiness, the Evans-Blue-albumin complex escapes from the blood-stream into the surrounding interstitial fluid with the result of blue coloring of the extremities and the bluish appearance at the brain surface.
In a specific experiment, 40 mg/kg of peptide of SEQ ID NO: 12 or vehicle were injected, each to 2 mice, i.p. 5 min before color injection. Evans-blue, at 40 mg/kg was then injected i.p. and 30 min later “Neurosurgery” was performed and the escape of the color from the blood stream was monitored as manifested by the bluish appearance of the brain surrounding tissue.
In another experiment, 40 mg/kg of peptide SEQ ID NO: 12 were injected to mice, i.p. 1 or 4 hours before color injection (Evans-blue, 40 mg/kg i.p. for 30 minutes). Control mice received i.p. injection of vehicle ([…]) 1 hour before color injection.

[2] = test system: C57BL mice, polymicrobial septic mouse model; experiment: In-vivo septic shock model (cecum ligation and puncture); conditions: 20 mg/Kg s.c. once a day for 5 days; FIG. 5
Experimental: The polymicrobial septic mouse model of severe sepsis (Belikoff et al. The Journal of Immunology, 2011, 186: 2444-2453), was induced in wild-type (WT) C57BL mice using cecum ligation and puncture (CLP) approach. In summary, mice were anesthetized, a 1.5-cm, longitudinal incision in the lower right quadrant of the abdomen was performed and the cecum was exposed. The distal two third of the cecum was ligated with 4-0 silk suture and punctured doubly with an 18-gauge needle. The cecum was then replaced into the peritoneal cavity and the incision was closed with surgical staples. After that, the mice were resuscitated with sterile saline injected subcutaneously and allowed free access to food and water after awaking.
Following this procedure, mice were then injected s.c. once a day, for 5 days, with either vehicle or with 20 mg/Kg of GPS-725.017 (SEQ ID NO: 12).

Myr-Gly-Nle-Arg-Pro-Tyr-NH2 (Myristoyl-G[Nle]RPY-NH2; SMILES CCCCCCCCCCCCCC(=O)NCC(=O)N[C@@H](CCCC)C(=O)N[C@@H](CCCNC(=N)N)C(=O)N1CCC[C@H]1C(=O)N[C@@H](Cc1ccc(O)cc1)C(N)=O) [AB-017]
capillary / vessel formation (in words) (mouse aortic rings; aortic ring assay, FIGS. 1A-1C and 2A-2C): induce massive capillary formation | Capillary length 10 μM (mouse aortic rings; peptide 10 μM, rings fixed after two weeks): 3,100 and 3,770 | Capillary length 20 μM (mouse aortic rings; peptide 20 μM, rings fixed after two weeks): 11,200 and 15,300 | Evans-Blue leaking from blood vessels (brain and periphery) ([1]; 20 mg/kg i.p. 10 min before Evans-blue 40 mg/kg i.p., 30 minutes): no color was leaking | Evans-Blue leaking from blood vessels (brain) ([1]; 40 mg/kg i.p. 5 min before Evans-blue 40 mg/kg i.p., read 30 min later): no color was leaking | Evans-Blue leaking from blood vessels (brain) ([1]; 40 mg/kg i.p. 1 hr before Evans-blue 40 mg/kg i.p., 30 minutes): no color was leaking | Evans-Blue leaking from blood vessels (brain) ([1]; 40 mg/kg i.p. 4 hrs before Evans-blue 40 mg/kg i.p., 30 minutes): only a partial protection | rescue from death in septic-shock model [2]: rescue mice from death
